Experimental findings from EP0452067A2, “Oligosaccharide compounds and preparation thereof” (GENZYME CORPORATION, priority 1990, dated 1991) are described below.

For data set [1], the system named is α-amylase. Briefly: Determination of kinetic and binding values of α-amylase substrates. Format: biochemical. To be noted: for Km: 50 mM PIPES pH 7.0, 50 mM NaCl, 5 mM CaCl₂, glucoamylase and maltase, 27°C, corrected for contaminating unblocked substrate. The procedure:
All reactions were carried out in 50 mM PIPES buffer (pH 7.0) containing 50 mM NaCl, 5 mM CaCl₂, 10 units glucoamylase and 25 units maltase at 27°C. Each substrate concentration was run in duplicate and at least eight concentrations were examined for each substrate. Data from the reaction progress curves were fit to the Michaelis-Menten equation using Marquardt analysis. The Km values were corrected for contaminating unblocked substrate. The values V and K for the G₇ substrates are the average of two experiments. The error in the kinetic parameters from each experiment was less than 5% from the average reported.

Data set [2] deals with pancreatic and salivary α-amylase. Briefly: Cleavage pattern, both amylases. The class given is biochemical. The note with it: range over pancreatic and salivary α-amylase.
Data set [3] has as its target T1, Pancreatic Amylase (Homo sapiens, UniProt P04746).
T1 sequence (P04746 16-511): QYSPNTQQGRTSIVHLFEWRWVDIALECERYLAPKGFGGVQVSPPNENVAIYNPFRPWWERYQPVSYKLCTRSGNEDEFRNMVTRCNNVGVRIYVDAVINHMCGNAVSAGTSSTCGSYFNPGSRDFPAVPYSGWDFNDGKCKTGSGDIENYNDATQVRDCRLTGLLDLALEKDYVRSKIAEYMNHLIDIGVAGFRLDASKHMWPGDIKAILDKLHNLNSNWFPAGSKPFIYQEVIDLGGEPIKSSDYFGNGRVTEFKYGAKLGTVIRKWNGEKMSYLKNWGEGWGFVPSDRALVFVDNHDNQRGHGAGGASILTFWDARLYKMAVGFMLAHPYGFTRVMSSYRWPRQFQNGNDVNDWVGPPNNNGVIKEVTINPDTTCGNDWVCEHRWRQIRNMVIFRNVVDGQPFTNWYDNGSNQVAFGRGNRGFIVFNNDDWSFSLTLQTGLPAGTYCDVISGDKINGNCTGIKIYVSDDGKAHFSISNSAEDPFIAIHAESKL
Briefly: Cleavage pattern of substrates on hydrolysis with pancreatic amylase.

Each structure is given as a SMILES string.

As for `CC(C)(C)[Si](C)(C)OC[C@H]1O[C@H](O[C@H]2[C@H](O)[C@@H](O)[C@@H](O[C@H]3[C@H](O)[C@@H](O)[C@@H](O[C@H]4[C@H](O)[C@@H](O)[C@@H](O[C@H]5[C@H](O)[C@@H](O)[C@@H](O[C@H]6[C@H](O)[C@@H](O)[C@@H](O[C@H]7[C@H](O)[C@@H](O)[C@@H](Oc8ccc([N+](=O)[O-])cc8)O[C@@H]7CO)O[C@@H]6CO)O[C@@H]5CO)O[C@@H]4CO)O[C@@H]3CO)O[C@@H]2CO)[C@H](O)[C@@H](O)[C@@H]1O` [Substrate 1, 6-0-t-butyldimethylsilyl-4-nitrophenyl-α-D-maltoheptaoside], the “Vmax, faster than the Bz-G₇-PNP” value in data set [1] (relative to Bz-G₇-PNP) is listed as 46%. For the same compound, the “cleaved between glucoses 3 and 4” value in data set [2] is reported as 66 - 67%. For the same compound, in data set [3], the “Cleavage Position (% of total) G 1/2” value is recorded as 1.1 % of total, the “Cleavage Position (% of total) G 2/3” value is on record as 13.3 % of total, the “Cleavage Position (% of total) G 3/4” value was 65.6 % of total and the “Cleavage Position (% of total) G 4/5” value was 19.9 % of total. For the same compound, in data set [3], the “Total Hydrolysis (%)” value came to 69.9%.
By Km is commonly meant the substrate concentration at which the rate is half of its maximum. As for `O=[N+]([O-])c1ccc(O[C@H]2O[C@H](CO)[C@@H](O[C@H]3O[C@H](CO)[C@@H](O[C@H]4O[C@H](CO)[C@@H](O[C@H]5O[C@H](CO)[C@@H](O[C@H]6O[C@H](CO)[C@@H](O[C@H]7O[C@H](CO)[C@@H](O[C@H]8O[C@@H]9COC(c%10ccccc%10)O[C@H]9[C@H](O)[C@H]8O)[C@H](O)[C@H]7O)[C@H](O)[C@H]6O)[C@H](O)[C@H]5O)[C@H](O)[C@H]4O)[C@H](O)[C@H]3O)[C@H](O)[C@H]2O)cc1` (stereo partly drawn) [Substrate 2, 4,6-0-benzylidene-4-nitrophenyl-α-D-maltoheptaoside], in data set [1], the Km came to 92 µM. The “cleaved between glucoses 2 and 3” value in data set [2] is given as 63 - 74%. Further, in data set [3], the “Cleavage Position (% of total) G 1/2” value is reported as 4.0 % of total, the “Cleavage Position (% of total) G 2/3” value is listed as 63.1 % of total, the “Cleavage Position (% of total) G 3/4” value is given as 18.9 % of total and the “Cleavage Position (% of total) G 5/6” value is given as 13.6 % of total. Moreover, the “Total Hydrolysis (%)” value in data set [3] was 15.1%.
In the case of `CC(C)(C)[Si](C)(C)OC[C@H]1O[C@H](O[C@H]2[C@H](O)[C@@H](O)[C@@H](O[C@H]3[C@H](O)[C@@H](O)[C@@H](O[C@H]4[C@H](O)[C@@H](O)[C@@H](O[C@H]5[C@H](O)[C@@H](O)[C@@H](Oc6ccc([N+](=O)[O-])cc6)O[C@@H]5CO)O[C@@H]4CO)O[C@@H]3CO)O[C@@H]2CO)[C@H](O)[C@@H](O)[C@@H]1O` [Substrate 3, 6-0-t-butyldimethylsilyl-4-nitrophenyl-α-D-maltopentaoside], the Michaelis constant (Km) in data set [1] worked out at 87 µM. The “V/K greater than that of the Bz-G₅-PNP” value in data set [1] (relative to Bz-G₅-PNP) was determined as 19%. Besides, in data set [2], the “cleaved between glucose units 1-2” value is reported as 40 - 60%; the “cleaved between glucoses 2 and 3” value was 40 - 60%. Moreover, in data set [3], the “Cleavage Position (% of total) G 1/2” value is 59.4 % of total, the “Cleavage Position (% of total) G 2/3” value is recorded as 40.6 % of total and the “Total Hydrolysis (%)” value is 31.6%.
In the case of `O=[N+]([O-])c1ccc(O[C@H]2O[C@H](CO)[C@@H](O[C@H]3O[C@H](CO)[C@@H](O[C@H]4O[C@H](CO)[C@@H](O[C@H]5O[C@H](CO)[C@@H](O[C@H]6O[C@@H]7COC(c8ccccc8)O[C@H]7[C@H](O)[C@H]6O)[C@H](O)[C@H]5O)[C@H](O)[C@H]4O)[C@H](O)[C@H]3O)[C@H](O)[C@H]2O)cc1` (stereo partly drawn) [Substrate 4, 4,6-0-benzylidene-4-nitrophenyl-α-D-maltopentaoside], the Michaelis-Menten constant (Km) in data set [1] was found to be 183 µM. In data set [2], the “cleaved between glucoses 3 and 4” value is 78 - 84%. In data set [3], the “Cleavage Position (% of total) G 1/2” value is recorded as 2.5 % of total, the “Cleavage Position (% of total) G 2/3” value is listed as 19.4 % of total, the “Cleavage Position (% of total) G 3/4” value is listed as 78.1 % of total and the “Total Hydrolysis (%)” value was 42.9%.
